Values quoted from earlier work in patent publication US11737985B2 (priority 2013, dated 2023).
Like-named read-outs stand apart in the source and are kept apart here.

Columns and labels:
[1] = in vivo; cited from earlier work
[2] = cited from earlier work; for mean concentration in plasma: cancer patients; for Cmax / Tmax: single dose 182 mg controlled-release tablet

Q: With `NNc1nncc2ccccc12` [hydralazine, 1-hydrazinophthalazine] as the compound, how does the systemic clearance [1] read?
A: approximately 50 ml/kg/min

Q: And the “mean concentration in plasma” value ([2]; fast acetylators, 182 mg daily controlled-release)?
A: 239.1 ng/mL

Q: What about the “mean concentration in plasma” value ([2]; slow acetylators, 83 mg daily controlled-release) of the same compound?
A: 259.2 ng/mL

Q: What about the Cmax ([2]; fast acetylators, ± SD) of the same compound?
A: 208.4 ± 56.9 ng/mL

Q: What about the Tmax ([2]; fast acetylators) of the same compound?
A: 2.8 ± 2.5 h

Q: What about the Cmax ([2]; slow acetylators) of the same compound?
A: 470.4 ± 162.8 ng/mL

Q: And the Tmax ([2]; slow acetylators)?
A: 4.4 ± 3.1 h
